This test has as its target T1, human IL-17AA (Homo sapiens, UniProt Q16552).
T1 construct: host or cells: HEK (human embryonic kidney) cells
T1 sequence (Q16552 24-155) 1: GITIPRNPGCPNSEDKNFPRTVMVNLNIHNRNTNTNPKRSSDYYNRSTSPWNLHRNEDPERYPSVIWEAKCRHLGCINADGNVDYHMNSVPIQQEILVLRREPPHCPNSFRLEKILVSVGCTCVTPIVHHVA
T1 sequence (Q16552 24-155) 2: T1 sequence (Q16552 24-155) 1
Put plainly: IL-8 release assay in human epithelial keratinocytes adult (HEKa). The test is classed as cell-based. The settings on record: 3 ng/ml human IL-17AA + 10 ng/ml human TNFalpha, 68-72 h, IL-8 by HTRF, read-out: Rel EC50 L-8 release assay. In a few lines: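 Adult human keratinocytes in Epilife with HKGS minus hydrocortisone, treated with compound then stimulated with final 3 ng/ml HEK-derived human IL-17AA plus 10 ng/ml TNF-alpha for 68–72 h at 37 °C; TNF-alpha alone defines 100% inhibition. Secreted IL-8 by HTRF; relative IC50 and Emax from four-parameter fits.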
(In general: In TR-FRET formats the signal depends on donor and acceptor labels being close together.)

One may read the EC50 as the concentration at which the effect is half-maximal. Regarding `CC(c1cccc(-c2ccc(=O)n(C(C)C)c2)c1)[C@H](NC(=O)c1ccnn1C)C(=O)Nc1ccc(-c2cncn2C)cc1` (stereo partly drawn) [Example 56, N-[(1S)-2-[3-(1-isopropyl-6-oxo-3-pyridyl)phenyl]-1-[[4-(3-methylimidazol-4-yl)phenyl]carbamoyl]propyl]-2-methyl-pyrazole-3-carboxamide], the half-maximal effective concentration (EC50) is more than 1000 nM. In the case of `Cc1n[nH]c(C)c1-c1ccc(NC(=O)[C@@H](NC(=O)C2(F)CC2)[C@@H]2CCCc3ccc(-c4ccc(=O)n(C(C)C)c4)cc32)cc1O` [Example 47, N-[(1S)-2-[4-(3,5-dimethyl-1H-pyrazol-4-yl)-3-hydroxy-anilino]-1-[(1R)-7-(1-isopropyl-6-oxo-3-pyridyl)tetralin-1-yl]-2-oxo-ethyl]-1-fluoro-cyclopropanecarboxamide] it was less than 100 nM. In the case of `CC(C)n1cc(-c2ccc3c(c2)[C@H]([C@H](NC(=O)c2ccnn2C)C(=O)Nc2ccc(-c4cncn4C)cc2)CCC3)ccc1=O` [Example 30, N-[(1S)-1-[(1R)-7-(1-isopropyl-6-oxo-3-pyridyl)tetralin-1-yl]-2-[4-(3-methylimidazol-4-yl)anilino]-2-oxo-ethyl]-2-methyl-pyrazole-3-carboxamide] it was less than 100 nM. In the case of `Cc1cc(-c2ccc(Cl)c(CC(NC(=O)c3ccnn3C)C(=O)Nc3ccc(-c4nncn4C4CC4)cc3)c2)ccn1` (stereo not shown) [Example 73, N-[1-[[2-chloro-5-(2-methyl-4-pyridyl)phenyl]methyl]-2-[4-(4-cyclopropyl-1,2,4-triazol-3-yl)anilino]-2-oxo-ethyl]-2-methyl-pyrazole-3-carboxamide] it was more than 1000 nM; in that of `Cc1n[nH]c(C)c1-c1ccc(NC(=O)[C@@H](NC(=O)c2ccnn2C)[C@@H]2CCc3ccc(-c4ccc5c(c4)CN(C)C5)cc32)cc1` [Example 10, N-[(1S)-2-[4-(3,5-dimethyl-1H-pyrazol-4-yl)anilino]-1-[(1R)-6-(2-methylisoindolin-5-yl)indan-1-yl]-2-oxo-ethyl]-2-methyl-pyrazole-3-carboxamide], less than 100 nM. Take `Cn1cnnc1-c1ccc(NC(=O)C(Cc2cc(-c3ccnc(CC(C)(C)O)c3)ccc2Cl)NC(=O)c2ccnn2C)cc1` (stereo not shown) [Example 64, N-[1-[[2-chloro-5-[2-(2-hydroxy-2-methyl-propyl)-4-pyridyl]phenyl]methyl]-2-[4-(4-methyl-1,2,4-triazol-3-yl)anilino]-2-oxo-ethyl]-2-methyl-pyrazole-3-carboxamide]: the concentration for a half-maximal effect (EC50) was more than 1000 nM.

Take `CC(C)n1cc(-c2ccc(Cl)c(CC(NC(=O)c3ccnn3C)C(=O)Nc3ccc(-c4nncn4C4CC4)cc3)c2)ccc1=O` (stereo not shown) [Example 72, N-[1-[[2-chloro-5-(1-isopropyl-6-oxo-3-pyridyl)phenyl]methyl]-2-[4-(4-cyclopropyl-1,2,4-triazol-3-yl)anilino]-2-oxo-ethyl]-2-methyl-pyrazole-3-carboxamide]: the concentration for a half-maximal effect (EC50) was more than 1000 nM. In the case of `Cn1cncc1-c1ccc(NC(=O)C(Cc2cc(-c3ccnc(N4CCC[C@@H]4CO)c3)ccc2Cl)NC(=O)c2ccnn2C)cc1` (stereo partly drawn) [Example 189, N-[1-[[2-chloro-5-[2-[(2R)-2-(hydroxymethyl)pyrrolidin-1-yl]-4-pyridyl]phenyl]methyl]-2-[4-(3-methylimidazol-4-yl)anilino]-2-oxo-ethyl]-2-methyl-pyrazole-3-carboxamide] it was 100 to 1000 nM; in that of `Cn1cncc1-c1ccc(NC(=O)C(Cc2cc(-c3ccnc(N4CCOCC4)c3)ccc2Cl)NC(=O)c2ccnn2C)cc1` (stereo not shown) [Example 165, N-[1-[[2-chloro-5-(2-morpholino-4-pyridyl)phenyl]methyl]-2-[4-(3-methylimidazol-4-yl)anilino]-2-oxo-ethyl]-2-methyl-pyrazole-3-carboxamide], 100 to 1000 nM. Then `CN(C)[C@H]1CCN(c2cc(-c3ccc(Cl)c(CC(NC(=O)c4ccnn4C)C(=O)Nc4ccc(-c5cncn5C)cc4)c3)ccn2)C1` (stereo partly drawn) [Example 184, N-[1-[[2-chloro-5-[2-[(3S)-3-(dimethylamino)pyrrolidin-1-yl]-4-pyridyl]phenyl]methyl]-2-[4-(3-methylimidazol-4-yl)anilino]-2-oxo-ethyl]-2-methyl-pyrazole-3-carboxamide], with 100 to 1000 nM.

For the origin of these results see patent US20220162191A1, “SMALL MOLECULE MODULATORS OF IL-17” (LEO PHARMA A/S, priority 2019, published 2022).
